Test results as given in ChEMBL document CHEMBL3885881, “DrugMatrix”.

Species: Rattus norvegicus
Experiment: DrugMatrix - Regimen: Daily Repeat
Type: toxicity, organism-based, Sprague-Dawley
Set-up: regimen Daily Repeat, gender Male, age 6-8 weeks
Conditions: in vivo, po, 3 mg/kg, route oral GAVAGE, dose level Low, vehicle 100 % WATER; for ABSOLUTE BASOPHIL / ABSOLUTE EOSINOPHIL / ABSOLUTE LYMPHOCYTE / ABSOLUTE MONOCYTE / ABSOLUTE SEGMENTED NEUTROPHIL / BASOPHIL / EOSINOPHIL / ERYTHROCYTE COUNT / HEMATOCRIT / HEMOGLOBIN / LEUKOCYTE COUNT / LYMPHOCYTE / MEAN CORPUSCULAR HEMOGLOBIN / MEAN CORPUSCULAR HEMOGLOBIN CONCENTRATION / MONOCYTE / NEUTROPHIL / NUCLEATED RED BLOOD CELLS / PLATELET COUNT: tissue Blood; for ALANINE AMINOTRANSFERASE / ALBUMIN / ALKALINE PHOSPHATASE / ASPARTATE AMINOTRANSFERASE / BLOOD UREA NITROGEN / CARBON DIOXIDE / CHLORIDE / CHOLESTEROL / CREATINE PHOSPHOKINASE / CREATININE / GLUCOSE / LACTATE DEHYDROGENASE / LIPASE / PHOSPHORUS / SODIUM / TOTAL BILIRUBIN / TOTAL PROTEIN / URIC ACID: tissue Plasma

How did the “ABSOLUTE BASOPHIL” value (72 h, time 3 day) turn out when COc1cc2nc(N3CCN(C(=O)C4CCCO4)CC3)nc(N)c2cc1OC (configuration not stated) [TERAZOSIN] was run?
The value was 0 CELLS/uL.

What about the “ABSOLUTE EOSINOPHIL” value (72 h, time 3 day) of the same compound?
The value was 53.33 CELLS/uL.

And the “ABSOLUTE LYMPHOCYTE” value (72 h, time 3 day)?
The value was 7633 CELLS/uL.

And the “ABSOLUTE MONOCYTE” value (72 h, time 3 day)?
Its value is 36.67 CELLS/uL.

What about the “ABSOLUTE SEGMENTED NEUTROPHIL” value (72 h, time 3 day) of the same compound?
The value was 977 CELLS/uL.

What about the BASOPHIL (72 h, time 3 day) of the same compound?
Its BASOPHIL is 0%.

What about the EOSINOPHIL (72 h, time 3 day) of the same compound?
Its EOSINOPHIL is 0.67%.

What about the “ERYTHROCYTE COUNT” value (72 h, time 3 day) of the same compound?
Its value is 4.99 x10E6/uL.

What about the HEMATOCRIT (72 h, time 3 day) of the same compound?
Its HEMATOCRIT is 32.2%.

What about the HEMOGLOBIN (72 h, time 3 day) of the same compound?
The HEMOGLOBIN was 12.87 G/DL.

And the “LEUKOCYTE COUNT” value (72 h, time 3 day)?
The value was 8.7 x10E3/uL.

And the LYMPHOCYTE (72 h, time 3 day)?
The LYMPHOCYTE was 88%.

And the “MEAN CORPUSCULAR HEMOGLOBIN” value (72 h, time 3 day)?
Its value is 25.87 pg.

And the “MEAN CORPUSCULAR HEMOGLOBIN CONCENTRATION” value (72 h, time 3 day)?
The value was 40 G/DL.

And the MONOCYTE (72 h, time 3 day)?
Its MONOCYTE is 0.33%.

What about the NEUTROPHIL (72 h, time 3 day) of the same compound?
Its NEUTROPHIL is 11%.

And the “NUCLEATED RED BLOOD CELLS” value (72 h, time 3 day)?
The value was 0 /100WBC.

What about the “PLATELET COUNT” value (72 h, time 3 day) of the same compound?
Its value is 1053.33 x10E3/uL.

And the “ALANINE AMINOTRANSFERASE” value (72 h, time 3 day)?
The value was 63.67 u/L.

And the ALBUMIN (72 h, time 3 day)?
The ALBUMIN was 4.27 G/DL.

And the “ALKALINE PHOSPHATASE” value (72 h, time 3 day)?
Its value is 367.67 u/L.

And the “ASPARTATE AMINOTRANSFERASE” value (72 h, time 3 day)?
The value was 102.33 u/L.

What about the “BLOOD UREA NITROGEN” value (72 h, time 3 day) of the same compound?
The value was 16.67 mg/dL.

And the “CARBON DIOXIDE” value (72 h, time 3 day)?
The value was 32.67 mmol/L.

What about the CHLORIDE (72 h, time 3 day) of the same compound?
Its CHLORIDE is 103.33 MEQ/L.

What about the CHOLESTEROL (72 h, time 3 day) of the same compound?
The CHOLESTEROL was 74 mg/dL.

And the “CREATINE PHOSPHOKINASE” value (72 h, time 3 day)?
Its value is 321.67 u/L.

What about the CREATININE (72 h, time 3 day) of the same compound?
The CREATININE was 0.24 mg/dL.

What about the GLUCOSE (72 h, time 3 day) of the same compound?
Its GLUCOSE is 155 mg/dL.

And the “LACTATE DEHYDROGENASE” value (72 h, time 3 day)?
The value was 197.67 u/L.

And the LIPASE (72 h, time 3 day)?
The LIPASE was 8.33 u/L.

What about the PHOSPHORUS (72 h, time 3 day) of the same compound?
Its PHOSPHORUS is 12.7 mg/dL.

What about the SODIUM (72 h, time 3 day) of the same compound?
The SODIUM was 145.9 MEQ/L.

And the “TOTAL BILIRUBIN” value (72 h, time 3 day)?
The value was 0.13 mg/dL.

What about the “TOTAL PROTEIN” value (72 h, time 3 day) of the same compound?
Its value is 5.97 G/DL.

What about the “URIC ACID” value (72 h, time 3 day) of the same compound?
The value was 1.27 mg/dL.

And the “ABSOLUTE BASOPHIL” value (120 h, time 5 day)?
The value was 0 CELLS/uL.

What about the “ABSOLUTE EOSINOPHIL” value (120 h, time 5 day) of the same compound?
The value was 0 CELLS/uL.

What about the “ABSOLUTE LYMPHOCYTE” value (120 h, time 5 day) of the same compound?
Its value is 9705.67 CELLS/uL.

What about the “ABSOLUTE MONOCYTE” value (120 h, time 5 day) of the same compound?
Its value is 145.67 CELLS/uL.

And the “ABSOLUTE SEGMENTED NEUTROPHIL” value (120 h, time 5 day)?
The value was 882 CELLS/uL.

What about the BASOPHIL (120 h, time 5 day) of the same compound?
The BASOPHIL was 0%.

What about the EOSINOPHIL (120 h, time 5 day) of the same compound?
The EOSINOPHIL was 0%.

And the “ERYTHROCYTE COUNT” value (120 h, time 5 day)?
Its value is 5.4 x10E6/uL.

What about the HEMATOCRIT (120 h, time 5 day) of the same compound?
Its HEMATOCRIT is 35.9%.

And the HEMOGLOBIN (120 h, time 5 day)?
The HEMOGLOBIN was 13.87 G/DL.

And the “LEUKOCYTE COUNT” value (120 h, time 5 day)?
The value was 10.73 x10E3/uL.

What about the LYMPHOCYTE (120 h, time 5 day) of the same compound?
Its LYMPHOCYTE is 90.33%.

And the “MEAN CORPUSCULAR HEMOGLOBIN” value (120 h, time 5 day)?
Its value is 25.7 pg.

And the “MEAN CORPUSCULAR HEMOGLOBIN CONCENTRATION” value (120 h, time 5 day)?
Its value is 38.67 G/DL.

And the MONOCYTE (120 h, time 5 day)?
The MONOCYTE was 1.33%.

And the NEUTROPHIL (120 h, time 5 day)?
The NEUTROPHIL was 8.33%.

And the “NUCLEATED RED BLOOD CELLS” value (120 h, time 5 day)?
The value was 0 /100WBC.

What about the “PLATELET COUNT” value (120 h, time 5 day) of the same compound?
Its value is 1076.33 x10E3/uL.

And the “ALANINE AMINOTRANSFERASE” value (120 h, time 5 day)?
The value was 56.67 u/L.

And the ALBUMIN (120 h, time 5 day)?
Its ALBUMIN is 4.27 G/DL.

What about the “ALKALINE PHOSPHATASE” value (120 h, time 5 day) of the same compound?
The value was 361.33 u/L.

And the “ASPARTATE AMINOTRANSFERASE” value (120 h, time 5 day)?
The value was 85.33 u/L.

And the “BLOOD UREA NITROGEN” value (120 h, time 5 day)?
Its value is 20.67 mg/dL.

And the “CARBON DIOXIDE” value (120 h, time 5 day)?
The value was 30 mmol/L.

What about the CHLORIDE (120 h, time 5 day) of the same compound?
Its CHLORIDE is 102.67 MEQ/L.

And the CHOLESTEROL (120 h, time 5 day)?
Its CHOLESTEROL is 75.33 mg/dL.

What about the “CREATINE PHOSPHOKINASE” value (120 h, time 5 day) of the same compound?
The value was 197.33 u/L.

And the CREATININE (120 h, time 5 day)?
Its CREATININE is 0.24 mg/dL.

And the GLUCOSE (120 h, time 5 day)?
The GLUCOSE was 172 mg/dL.

What about the “LACTATE DEHYDROGENASE” value (120 h, time 5 day) of the same compound?
Its value is 141.67 u/L.

And the LIPASE (120 h, time 5 day)?
Its LIPASE is 11.33 u/L.

What about the PHOSPHORUS (120 h, time 5 day) of the same compound?
Its PHOSPHORUS is 13.7 mg/dL.

What about the SODIUM (120 h, time 5 day) of the same compound?
Its SODIUM is 146.17 MEQ/L.

What about the “TOTAL BILIRUBIN” value (120 h, time 5 day) of the same compound?
Its value is 0.2 mg/dL.

What about the “TOTAL PROTEIN” value (120 h, time 5 day) of the same compound?
Its value is 5.9 G/DL.

What about the “URIC ACID” value (120 h, time 5 day) of the same compound?
The value was 1.7 mg/dL.
